The values below come from patent US20250296938A1, “Compounds that Interact with the Ras Superfamily for the Treatment of Cancers, Inflammatory Diseases, Rasopathies, and Fibrotic Disease” (SHY Therapeutics, LLC, priority 2018, published 2025).

The subject of one experiment is TNF-α. Kind of experiment: Mouse TNF alpha quantification assay, LPS-stimulated RAW 264.7 macrophages. The experiment is classed as cell-based. The following applies: for inhibition at 30 µM: RAW264.7, 30 μM, LPS-stimulated RAW 264.7 macrophages; for inhibition at 10 µM: RAW264.7, 10 μM, LPS (100 ng/ml) added concurrently, 5 hours, RAW 264.7, read-out: TNFα % Inhibition. On the procedure:
(§1) Cell lines: Abelson murine leukemia virus transformed macrophage cell line RAW 264.7 was purchased from ATCC and grown in complete DMEM-High Glucose medium supplemented with penicillin (100 U/mL), streptomycin (100 μg/mL), and 10% heat-inactivated FBS at 37° C. in a humidified incubator with 5% CO2.
(§2) Method: Cells were plated at 25000-40000 cells/well density in a 96-well plate. After a 3-hour incubation, macrophages were starved with DMEM plus 0.5% FBS overnight. The next day the small molecules to be tested were added to the cells in the final concentration of 30 μM (with 0.3% DMSO) 3 hours prior to LPS stimulation (100 ng/ml). After LPS stimulation cells were incubated at 37° C. for 16 h. Alternatively, compounds were also tested at 10 μM and LPS (100 ng/ml) was added concurrently and incubated 5 hours at 37° C. At the end of the incubation periods, culture medium was collected and production of LPS-induced TNF-α and IL-6 cytokine was measured using ELISA detection kits.
(§3) Sandwich ELISA: The ELISA Immunoassays Quantikine Mouse TNF-alpha (catalog number MTA00B) and IL6 (catalog number M6000B) were purchased from R&D Systems Inc., Minneapolis, MN. These 4.5 hours solid phase ELISAs were used to measure mouse TNF-α or IL-6 levels in macrophages culture supernatants. Assays were executed according to the manufacturer specifications.

The test system of another experiment is IL-6. Put plainly: Mouse IL6 quantification assay, LPS-stimulated RAW 264.7 macrophages. The experiment is classed as cell-based. As to conditions: for inhibition at 30 µM: RAW264.7, 30 μM, LPS-stimulated RAW 264.7 macrophages; for inhibition at 10 µM: RAW264.7, 10 μM, LPS (100 ng/ml) added concurrently, 5 hours, RAW 264.7. On the procedure:
as §1, §2, §3

As a reminder, the inhibition is the percentage by which the read-out fell short of the control.

Structures are written as SMILES.

Consider `COc1c(O)nc(-c2ccccn2)nc1Oc1cnn(C)c1` [drawing 720], for which the inhibition at 30 µM in the experiment with TNF-α was 0%; with IL-6, 26 to 50%.

As to `COc1c(O)nc(-c2ccccn2)nc1Oc1ccc2ncccc2c1` [drawing 721], the inhibition at 30 µM fell in the range of 1 to 25% in the experiment with TNF-α and 76 to 100% in the experiment with IL-6.

As to `COc1c(O)nc(-c2ccccn2)nc1Oc1cccnc1` [drawing 722], the values for the inhibition at 30 µM with TNF-α and in the experiment with IL-6 were 0% and 51 to 75%, respectively.

For `COc1cccc(Oc2nc(-c3ccccn3)nc(O)c2OC)c1` [drawing 723], the inhibition at 30 µM lay in the range of 26 to 50% with TNF-α and 76 to 100% in the experiment on IL-6.

In the case of `COc1ccc(Oc2nc(-c3ccccn3)nc(O)c2OC)cc1` [drawing 724], the figures for the inhibition at 30 µM in the experiment on TNF-α and in the experiment with IL-6 were 1 to 25% and 76 to 100%, respectively.

`COCCc1ccc(Oc2nc(-c3ccccn3)nc(O)c2OC)cc1` [drawing 725]: the inhibition at 30 µM with TNF-α lay within 1 to 25%; with IL-6 it was 76 to 100%.

For the compound `COc1c(O)nc(-c2ccccn2)nc1Oc1ccccc1` [drawing 726], the inhibition at 30 µM was in the range of 1 to 25% with TNF-α and 76 to 100% in the experiment on IL-6.

With `O=C(c1nc(-c2ccccn2)nc(O)c1O)N1CCOCC1` [drawing 728], the inhibition at 30 µM is 1 to 25% with TNF-α and 0% with IL-6.

Consider `CN(Cc1ccccc1)C(=O)c1nc(-c2ccccn2)nc(O)c1O` [drawing 729], for which the inhibition at 30 µM in the experiment on TNF-α is 0%; in the experiment with IL-6, 1 to 25%.

As to `O=C(NCc1ccccc1)c1nc(-c2ccccn2)nc(O)c1O` [drawing 730], the inhibition at 30 µM in the experiment on TNF-α and in the experiment with IL-6 was 76 to 100% throughout.

For the compound `O=C(c1nc(-c2ccccn2)nc(O)c1O)N1CCCC1` [drawing 731], the inhibition at 30 µM with TNF-α is 1 to 25%; with IL-6, 0%.

As for `O=C(NC1CCCC1)c1nc(-c2ccccn2)nc(O)c1O` [drawing 732], the inhibition at 30 µM lay in the range of 26 to 50% in the experiment on TNF-α and 76 to 100% in the experiment with IL-6.

`CC(C)CN(C)C(=O)c1nc(-c2ccccn2)nc(O)c1O` [drawing 733]: the inhibition at 30 µM in the experiment on TNF-α and in the experiment on IL-6 was 0% in each case.

On to `CC(C)CNC(=O)c1nc(-c2ccccn2)nc(O)c1O` [drawing 734], for which the inhibition at 30 µM is 26 to 50% in the experiment with TNF-α and 76 to 100% with IL-6.

For `COCCN(C)C(=O)c1nc(-c2ccccn2)nc(O)c1O` [drawing 735], the figures for the inhibition at 30 µM in the experiment with TNF-α and in the experiment with IL-6 were 1 to 25% and 0%, respectively.

On to `O=C(NC1CCC1)c1nc(-c2ccccn2)nc(O)c1O` [drawing 736], for which the inhibition at 30 µM in the experiment on TNF-α is 1 to 25%; with IL-6, 76 to 100%.

With `CC(C)NC(=O)c1nc(-c2nccn2C)nc(O)c1O` [drawing 737], the inhibition at 30 µM was 1 to 25% with TNF-α and 0% with IL-6.

As to `CCN(CC)C(=O)c1nc(-c2nccn2C)nc(O)c1O` [drawing 738], the inhibition at 30 µM with TNF-α was 1 to 25%; with IL-6 it was 0%.

Consider `Cn1ccnc1-c1nc(O)c(O)c(C(=O)N2CCCC2)n1` [drawing 739], for which the figures for the inhibition at 30 µM in the experiment on TNF-α and in the experiment on IL-6 were 1 to 25% and 0%, respectively.

Consider `Cn1ccnc1-c1nc(O)c(O)c(C(=O)NC2CCCC2)n1` [drawing 740], for which the values for the inhibition at 30 µM in the experiment with TNF-α and with IL-6 were 1 to 25% and 0%, respectively.

Regarding `Cn1ccnc1-c1nc(O)c(O)c(C(=O)N2CCCCC2)n1` [drawing 741], the figures for the inhibition at 30 µM in the experiment with TNF-α and in the experiment on IL-6 were 1 to 25% and 0%, respectively.

As for `Cn1ccnc1-c1nc(O)c(O)c(C(=O)NC2CCC2)n1` [drawing 742], the inhibition at 30 µM in the experiment with TNF-α is 1 to 25%; with IL-6 it was 0%.

Take `COC(=O)c1nc(-c2nccn2C)nc(O)c1O` [drawing 743]: the inhibition at 30 µM in the experiment on TNF-α and with IL-6 was 0% in each case.

With `COc1c(O)nc(-c2ccccn2)nc1Oc1ccc(C(=O)N(C)C)cc1` [drawing 744], the inhibition at 10 µM in the experiment with TNF-α and in the experiment on IL-6 was 1 to 25% each time.

Consider `COc1c(O)nc(-c2ccccn2)nc1Nc1ccccc1` [drawing 745], for which the inhibition at 10 µM in the experiment with TNF-α is 1 to 25%; in the experiment with IL-6 it was 76 to 100%.

In the case of `CCn1cc(Nc2nc(-c3ccccn3)nc(O)c2OC)cn1` [drawing 746], the results for the inhibition at 10 µM in the experiment with TNF-α and in the experiment with IL-6 were 1 to 25% and 76 to 100%, respectively.

Turning to `CCOc1cccc(Nc2nc(-c3ccccn3)nc(O)c2OC)c1` [drawing 747], the inhibition at 10 µM with TNF-α is 1 to 25%; in the experiment on IL-6, 51 to 75%.

With `COc1cccc(-c2sc3nc(-c4nccn4C)nc(NC4CCC(OC)C4)c3c2-c2ccccc2)c1F` (stereo not shown) [drawing 748], the inhibition at 10 µM in the experiment on TNF-α and in the experiment on IL-6 was 76 to 100% throughout.

On to `COc1cccc(-c2sc3nc(-c4nccn4C)nc(N[C@@H]4CC[C@H](OC)C4)c3c2-c2ccccc2)c1F` [drawing 749], for which the inhibition at 10 µM in the experiment on TNF-α lay in the range of 1 to 25%; with IL-6, 26 to 50%.

Regarding `COC1CCC(Nc2nc(-c3nccn3C)nc3sc(-c4cccc(O)c4F)c(-c4ccccc4)c23)C1` (stereo not shown) [drawing 750], the inhibition at 10 µM in the experiment with TNF-α and with IL-6 was 0% in each case.

On to `COc1c(F)cccc1-c1sc2nc(-c3nccn3C)nc(NC3CCC(OC)C3)c2c1-c1ccccc1` (stereo not shown) [drawing 751], for which the inhibition at 10 µM in the experiment with TNF-α was 0%; with IL-6, 1 to 25%.

In the case of `COc1c(F)cccc1-c1sc2nc(-c3nccn3C)nc(N[C@@H]3CC[C@H](OC)C3)c2c1-c1ccccc1` [drawing 752], the inhibition at 10 µM in the experiment on TNF-α and in the experiment with IL-6 was 0% each time.

`COC1CCC(Nc2nc(-c3nccn3C)nc3sc(-c4cccc5[nH]ncc45)c(-c4ccccc4)c23)C1` (stereo not shown) [drawing 753]: the inhibition at 10 µM in the experiment with TNF-α fell in the range of 51 to 75%; with IL-6, 76 to 100%.

Consider `CO[C@H]1CC[C@@H](Nc2nc(-c3nccn3C)nc3sc(-c4cccc5[nH]ncc45)c(-c4ccccc4)c23)C1` [drawing 754], for which the inhibition at 10 µM in the experiment with TNF-α and in the experiment on IL-6 was 76 to 100% throughout.

In the case of `COC1CCN(c2nc(-c3nccn3C)nc3sc(-c4cccc(O)c4F)c(-c4ccccc4)c23)C1` (stereo not shown) [drawing 755], the inhibition at 10 µM was 1 to 25% with TNF-α and 26 to 50% in the experiment on IL-6.

On to `COc1cccc(-c2sc3nc(-c4nccn4C)nc(N[C@H]4C[C@@H](OC)C4)c3c2-c2ccccc2)c1F` [drawing 756], for which the inhibition at 10 µM was 51 to 75% with TNF-α and 76 to 100% with IL-6.

In the case of `CO[C@H]1C[C@@H](Nc2nc(-c3nccn3C)nc3sc(-c4cnn(C)c4)c(-c4ccccc4)c23)C1` [drawing 757], the values for the inhibition at 10 µM in the experiment on TNF-α and with IL-6 were 1 to 25% and 51 to 75%, respectively.

On to `COc1cccc(-c2sc3nc(-c4nccn4C)nc(NC4CCC(OC)C4)c3c2C)c1F` (stereo not shown) [drawing 758], for which the figures for the inhibition at 10 µM in the experiment on TNF-α and with IL-6 were 0% and 1 to 25%, respectively.

As for `COc1cccc(-c2sc3nc(-c4nccn4C)nc(N[C@@H]4CC[C@H](OC)C4)c3c2C)c1F` [drawing 759], the inhibition at 10 µM in the experiment with TNF-α and with IL-6 was 1 to 25% each time.

In the case of `COC1CCC(Nc2nc(-c3nccn3C)nc3sc(-c4cccc5[nH]ncc45)c(C)c23)C1` (stereo not shown) [drawing 760], the figures for the inhibition at 10 µM with TNF-α and in the experiment on IL-6 were 1 to 25% and 51 to 75%, respectively.

As for `COc1cccc(-c2sc3nc(-c4nc(C)cn4C)nc(N[C@@H]4CC[C@H](OC)C4)c3c2C)c1F` [drawing 761], the inhibition at 10 µM in the experiment with TNF-α is 0%; in the experiment on IL-6 it was 1 to 25%.

`CO[C@H]1CC[C@@H](Nc2nc(-c3nc(C)cn3C)nc3sc(-c4cccc5[nH]ncc45)c(C)c23)C1` [drawing 762]: the inhibition at 10 µM with TNF-α fell in the range of 26 to 50%; in the experiment with IL-6 it was 76 to 100%.

For `COCCn1ccnc1-c1nc(O)c2scc(-c3ccc(OCC(C)C)nc3)c2n1` [drawing 763], the values for the inhibition at 10 µM in the experiment with TNF-α and with IL-6 were 1 to 25% and 26 to 50%, respectively.

With `CC(C)COc1ccc(-c2csc3c(O)nc(-c4nccn4Cc4ccccn4)nc23)cn1` [drawing 764], the inhibition at 10 µM lay within 1 to 25% in the experiment with TNF-α and 76 to 100% with IL-6.

Consider `COc1cccc(Cn2ccnc2-c2nc(O)c3scc(-c4ccc(OCC(C)C)nc4)c3n2)c1` [drawing 765], for which the inhibition at 10 µM in the experiment on TNF-α lay within 1 to 25%; in the experiment on IL-6, 76 to 100%.

`CO[C@H]1CC[C@@H](Nc2nc(-c3nccn3C)nc(C(=O)N3CCc4c(O)cccc4C3)c2C)C1` [drawing 766]: the inhibition at 10 µM is 1 to 25% in the experiment with TNF-α and 0% in the experiment on IL-6.

Take `CO[C@H]1C[C@@H](Nc2nc(-c3ccccn3)nc3sccc23)C1` [drawing 767]: the inhibition at 10 µM in the experiment on TNF-α and with IL-6 was 1 to 25% throughout.

With `CO[C@H]1C[C@@H](Nc2nc(-c3nccn3C)nc3sccc23)C1` [drawing 768], the figures for the inhibition at 10 µM in the experiment on TNF-α and in the experiment on IL-6 were 1 to 25% and 26 to 50%, respectively.

Turning to `Cn1ccc(-c2sc3nc(-c4nccn4C)nc(O)c3c2-c2ccccc2)n1` [drawing 769], the results for the inhibition at 10 µM in the experiment on TNF-α and in the experiment with IL-6 were 1 to 25% and 51 to 75%, respectively.

Turning to `CO[C@H]1C[C@@H](Nc2nc(-c3nccn3C)nc3sc(-c4ccn(C)n4)c(-c4ccccc4)c23)C1` [drawing 770], the inhibition at 10 µM with TNF-α and in the experiment on IL-6 was 76 to 100% in each case.
